# Key:
# Experiment in all cases: Caliper, Mobility shift assay off-chip
# PAK1 (human) = PAK1 (human) (UniProt Q13153)
# NEK6 (human) = NEK6 (human) (UniProt Q9HC98)
# CDK7 (human) = CDK7 (human) (UniProt P50613)
# CDK4 (human) = CDK4 (human) (UniProt P11802)
# PBK (human) = PBK (human) (UniProt Q96KB5)
# TSSK3 (human) = TSSK3 (human) (UniProt Q96PN8)
# EPHA2 (human) = EPHA2 (human) (UniProt P29317)
# LTK (human) = LTK (human) (UniProt P29376)
# NEK7 (human) = NEK7 (human) (UniProt Q8TDX7)
# CHUK (human) = CHUK (human) (UniProt O15111)
# RPS6KA2 KD1 KD2 (human) = RPS6KA2 KD1 KD2 (human) (UniProt Q15349)
# FGR (human) = FGR (human) (UniProt P09769)
# PGK1 (human) = PGK1 (human) (UniProt P00558)
# HIPK4 (human) = HIPK4 (human) (UniProt Q8NE63)
# AURKA (human) = AURKA (human) (UniProt O14965)
# AKT3 (human) = AKT3 (human) (UniProt Q9Y243)
# INSRR (human) = INSRR (human) (UniProt P14616)
# AKT2 (human) = AKT2 (human) (UniProt P31751)
# GSK3A (human) = GSK3A (human) (UniProt P49840)
# AKT1 (human) = AKT1 (human) (UniProt P31749)
# EPHB2 (human) = EPHB2 (human) (UniProt P29323)
# PAK4 (human) = PAK4 (human) (UniProt O96013)
# NIM1 (human) = NIM1 (human) (UniProt Q8IY84)
# ROCK1 (human) = ROCK1 (human) (UniProt Q13464)
# CAMK1D (human) = CAMK1D (human) (UniProt Q8IU85)
# MKNK1 (human) = MKNK1 (human) (UniProt Q9BUB5)
# TNIK (human) = TNIK (human) (UniProt Q9UKE5)
# STK4 (human) = STK4 (human) (UniProt Q13043)
# EPHA7 (human) = EPHA7 (human) (UniProt Q15375)
# CAMK2D (human) = CAMK2D (human) (UniProt Q13557)
# PRKCH (human) = PRKCH (human) (UniProt P24723)
# GSG2 (human) = GSG2 (human) (UniProt Q8TF76)
# JAK1 JH1 JH2 (human) = JAK1 JH1 JH2 (human) (UniProt P23458)
# FRK (human) = FRK (human) (UniProt P42685); conditions: compound 0.2 µM
# Sequence of NEK6 (human) (Q9HC98 whole entry, looked up): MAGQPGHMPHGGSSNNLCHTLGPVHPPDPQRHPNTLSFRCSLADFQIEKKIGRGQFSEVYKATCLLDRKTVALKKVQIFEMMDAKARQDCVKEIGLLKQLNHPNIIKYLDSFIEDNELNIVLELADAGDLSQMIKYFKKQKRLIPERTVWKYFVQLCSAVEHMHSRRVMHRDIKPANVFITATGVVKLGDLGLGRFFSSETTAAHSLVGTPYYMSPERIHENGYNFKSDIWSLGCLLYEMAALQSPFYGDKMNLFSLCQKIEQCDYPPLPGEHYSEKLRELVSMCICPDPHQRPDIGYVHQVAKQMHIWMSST
# Sequence of EPHA7 (human) (Q15375 whole entry, looked up): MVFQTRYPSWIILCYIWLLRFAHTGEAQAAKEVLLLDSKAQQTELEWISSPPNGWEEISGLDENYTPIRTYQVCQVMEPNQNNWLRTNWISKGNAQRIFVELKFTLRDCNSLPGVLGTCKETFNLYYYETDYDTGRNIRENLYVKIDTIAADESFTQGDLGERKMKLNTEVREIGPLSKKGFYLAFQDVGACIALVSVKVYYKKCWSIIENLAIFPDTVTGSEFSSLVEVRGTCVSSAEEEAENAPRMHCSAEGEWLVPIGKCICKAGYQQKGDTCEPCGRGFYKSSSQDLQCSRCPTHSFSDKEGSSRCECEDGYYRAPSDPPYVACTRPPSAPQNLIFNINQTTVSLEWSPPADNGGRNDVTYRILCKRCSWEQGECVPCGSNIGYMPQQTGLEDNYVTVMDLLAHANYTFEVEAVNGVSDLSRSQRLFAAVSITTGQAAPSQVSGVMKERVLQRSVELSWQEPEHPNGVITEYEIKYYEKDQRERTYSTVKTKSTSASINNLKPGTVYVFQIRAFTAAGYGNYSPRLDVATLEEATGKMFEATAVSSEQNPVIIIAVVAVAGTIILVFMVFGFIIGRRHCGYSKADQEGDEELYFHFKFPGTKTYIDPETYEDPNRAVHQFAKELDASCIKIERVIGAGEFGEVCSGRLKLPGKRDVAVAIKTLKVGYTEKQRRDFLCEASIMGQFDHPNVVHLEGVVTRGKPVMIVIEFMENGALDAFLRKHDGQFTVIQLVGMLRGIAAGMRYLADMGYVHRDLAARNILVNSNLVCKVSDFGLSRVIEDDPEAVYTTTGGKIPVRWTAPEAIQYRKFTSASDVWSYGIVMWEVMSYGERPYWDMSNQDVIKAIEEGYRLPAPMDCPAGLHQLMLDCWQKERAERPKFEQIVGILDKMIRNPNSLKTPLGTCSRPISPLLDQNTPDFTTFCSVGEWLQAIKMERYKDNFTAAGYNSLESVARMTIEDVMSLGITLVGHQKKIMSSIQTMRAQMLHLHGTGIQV
# Sequence of PBK (human) (Q96KB5 whole entry, looked up): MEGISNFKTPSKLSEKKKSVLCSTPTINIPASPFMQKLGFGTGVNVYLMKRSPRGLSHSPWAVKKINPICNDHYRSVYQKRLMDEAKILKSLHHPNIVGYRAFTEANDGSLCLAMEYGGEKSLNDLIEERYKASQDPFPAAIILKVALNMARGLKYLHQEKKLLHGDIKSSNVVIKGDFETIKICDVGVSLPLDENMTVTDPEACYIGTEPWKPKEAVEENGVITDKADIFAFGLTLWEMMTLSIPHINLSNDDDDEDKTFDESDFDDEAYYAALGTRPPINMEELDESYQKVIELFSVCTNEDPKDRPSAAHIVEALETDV
# Sequence of CAMK2D (human) (Q13557 whole entry, looked up): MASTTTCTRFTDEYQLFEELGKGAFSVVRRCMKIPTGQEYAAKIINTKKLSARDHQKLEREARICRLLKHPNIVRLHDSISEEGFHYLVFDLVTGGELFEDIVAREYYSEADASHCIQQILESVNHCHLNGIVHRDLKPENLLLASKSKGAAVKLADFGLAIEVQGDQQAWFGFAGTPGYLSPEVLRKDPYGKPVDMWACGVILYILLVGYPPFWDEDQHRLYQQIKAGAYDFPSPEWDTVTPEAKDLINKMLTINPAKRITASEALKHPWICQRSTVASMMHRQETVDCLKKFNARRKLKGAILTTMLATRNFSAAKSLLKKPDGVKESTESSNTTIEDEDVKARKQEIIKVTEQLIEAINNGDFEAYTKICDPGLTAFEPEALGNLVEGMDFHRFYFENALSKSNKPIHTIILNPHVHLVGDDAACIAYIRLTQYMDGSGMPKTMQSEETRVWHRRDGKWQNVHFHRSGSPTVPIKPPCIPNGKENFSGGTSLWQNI
# Sequence of PAK1 (human) (Q13153 whole entry, looked up): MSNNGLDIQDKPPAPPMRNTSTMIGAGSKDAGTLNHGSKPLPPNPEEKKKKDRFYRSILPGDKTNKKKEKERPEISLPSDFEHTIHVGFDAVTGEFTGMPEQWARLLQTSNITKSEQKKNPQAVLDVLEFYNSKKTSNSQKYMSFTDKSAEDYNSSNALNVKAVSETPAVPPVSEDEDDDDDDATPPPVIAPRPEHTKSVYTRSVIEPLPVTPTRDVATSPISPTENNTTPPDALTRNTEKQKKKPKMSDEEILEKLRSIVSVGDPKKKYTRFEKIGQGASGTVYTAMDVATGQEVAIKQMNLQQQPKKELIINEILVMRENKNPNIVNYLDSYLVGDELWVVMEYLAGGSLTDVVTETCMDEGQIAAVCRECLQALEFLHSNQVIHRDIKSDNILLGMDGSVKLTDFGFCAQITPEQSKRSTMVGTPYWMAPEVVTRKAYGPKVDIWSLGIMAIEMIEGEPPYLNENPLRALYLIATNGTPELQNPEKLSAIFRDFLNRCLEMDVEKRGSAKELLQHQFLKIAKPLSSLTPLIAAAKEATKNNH
# Sequence of JAK1 JH1 JH2 (human) (P23458 whole entry, looked up): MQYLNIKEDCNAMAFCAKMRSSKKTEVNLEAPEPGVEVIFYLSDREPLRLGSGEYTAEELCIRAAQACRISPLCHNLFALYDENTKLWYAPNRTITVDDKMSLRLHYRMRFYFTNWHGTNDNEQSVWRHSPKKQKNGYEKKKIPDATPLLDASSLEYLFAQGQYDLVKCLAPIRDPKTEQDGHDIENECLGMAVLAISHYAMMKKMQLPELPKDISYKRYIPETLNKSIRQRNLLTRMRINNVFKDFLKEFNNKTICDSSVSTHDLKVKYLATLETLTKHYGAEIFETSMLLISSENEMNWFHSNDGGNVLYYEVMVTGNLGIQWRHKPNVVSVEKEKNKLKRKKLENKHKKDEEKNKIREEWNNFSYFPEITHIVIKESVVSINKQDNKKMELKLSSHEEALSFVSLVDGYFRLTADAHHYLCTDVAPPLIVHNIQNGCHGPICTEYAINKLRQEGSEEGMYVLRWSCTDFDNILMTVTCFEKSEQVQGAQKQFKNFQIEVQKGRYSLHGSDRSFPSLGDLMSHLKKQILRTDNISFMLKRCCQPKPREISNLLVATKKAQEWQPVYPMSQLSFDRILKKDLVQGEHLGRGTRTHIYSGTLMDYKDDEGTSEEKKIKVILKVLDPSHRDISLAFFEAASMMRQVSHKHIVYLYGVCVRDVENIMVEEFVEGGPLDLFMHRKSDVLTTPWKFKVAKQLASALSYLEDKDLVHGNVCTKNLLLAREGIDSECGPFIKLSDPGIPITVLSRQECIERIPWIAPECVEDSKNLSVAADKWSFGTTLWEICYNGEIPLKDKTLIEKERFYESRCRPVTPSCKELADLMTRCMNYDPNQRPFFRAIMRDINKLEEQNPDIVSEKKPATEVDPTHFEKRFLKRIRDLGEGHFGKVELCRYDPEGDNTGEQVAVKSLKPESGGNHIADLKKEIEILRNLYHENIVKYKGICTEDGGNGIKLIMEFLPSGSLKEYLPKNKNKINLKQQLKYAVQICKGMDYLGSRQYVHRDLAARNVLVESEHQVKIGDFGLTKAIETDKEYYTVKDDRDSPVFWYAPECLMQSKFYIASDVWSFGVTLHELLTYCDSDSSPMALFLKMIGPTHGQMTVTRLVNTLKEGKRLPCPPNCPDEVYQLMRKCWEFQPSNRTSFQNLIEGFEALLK
# Sequence of MKNK1 (human) (Q9BUB5 whole entry, looked up): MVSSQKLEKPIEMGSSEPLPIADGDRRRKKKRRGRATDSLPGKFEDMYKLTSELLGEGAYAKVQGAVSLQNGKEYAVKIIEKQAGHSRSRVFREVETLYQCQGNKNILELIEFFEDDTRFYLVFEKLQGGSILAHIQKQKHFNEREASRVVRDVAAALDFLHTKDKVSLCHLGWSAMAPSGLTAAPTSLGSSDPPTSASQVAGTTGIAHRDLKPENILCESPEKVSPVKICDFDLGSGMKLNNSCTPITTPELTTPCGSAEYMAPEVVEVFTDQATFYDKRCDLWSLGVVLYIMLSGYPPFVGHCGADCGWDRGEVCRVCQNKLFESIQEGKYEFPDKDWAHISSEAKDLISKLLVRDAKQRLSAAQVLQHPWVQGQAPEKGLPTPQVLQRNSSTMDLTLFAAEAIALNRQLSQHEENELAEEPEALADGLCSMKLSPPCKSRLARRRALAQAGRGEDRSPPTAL
# Sequence of STK4 (human) (Q13043 whole entry, looked up): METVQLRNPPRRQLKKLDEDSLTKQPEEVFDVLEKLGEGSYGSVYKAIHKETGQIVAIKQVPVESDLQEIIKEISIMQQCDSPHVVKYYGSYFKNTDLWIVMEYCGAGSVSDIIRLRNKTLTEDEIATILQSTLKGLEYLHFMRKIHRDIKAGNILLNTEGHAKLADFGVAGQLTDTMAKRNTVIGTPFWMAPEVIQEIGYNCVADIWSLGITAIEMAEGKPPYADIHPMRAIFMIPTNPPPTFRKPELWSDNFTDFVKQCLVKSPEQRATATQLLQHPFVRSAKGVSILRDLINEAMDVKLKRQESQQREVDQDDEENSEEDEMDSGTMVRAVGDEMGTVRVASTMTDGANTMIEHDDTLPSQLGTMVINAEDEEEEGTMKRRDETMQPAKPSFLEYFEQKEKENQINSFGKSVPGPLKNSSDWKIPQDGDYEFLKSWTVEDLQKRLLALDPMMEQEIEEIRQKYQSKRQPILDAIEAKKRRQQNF
smiles,measurement,setting,value
CNC(=O)c1cc(Oc2ccc(NC(=O)Nc3ccc(Cl)c(C(F)(F)F)c3)cc2)ccn1,inhibition,PAK1 (human); compound 0.02 µM,-0.9%
same,inhibition,PAK1 (human); compound 0.2 µM,1.1%
same,inhibition,NEK6 (human); compound 0.02 µM,-5%
same,inhibition,NEK6 (human); compound 0.2 µM,-6.1%
same,inhibition,CDK7 (human); compound 0.02 µM,-5.5%
same,inhibition,CDK7 (human); compound 0.2 µM,-7%
same,inhibition,CDK4 (human); compound 0.02 µM,-2.3%
same,inhibition,CDK4 (human); compound 0.2 µM,-2.5%
same,inhibition,PBK (human); compound 0.02 µM,-6%
same,inhibition,PBK (human); compound 0.2 µM,-5.2%
same,inhibition,TSSK3 (human); compound 0.02 µM,2.7%
same,inhibition,TSSK3 (human); compound 0.2 µM,8.3%
same,inhibition,EPHA2 (human); compound 0.02 µM,-2.7%
same,inhibition,EPHA2 (human); compound 0.2 µM,9.8%
same,inhibition,LTK (human); compound 0.02 µM,-2.2%
same,inhibition,LTK (human); compound 0.2 µM,7.4%
same,inhibition,NEK7 (human); compound 0.02 µM,-3.3%
same,inhibition,NEK7 (human); compound 0.2 µM,-3.3%
same,inhibition,CHUK (human); compound 0.02 µM,3.4%
same,inhibition,CHUK (human); compound 0.2 µM,1%
same,inhibition,RPS6KA2 KD1 KD2 (human); compound 0.02 µM,-4.3%
same,inhibition,RPS6KA2 KD1 KD2 (human); compound 0.2 µM,-0.2%
same,inhibition,FGR (human); compound 0.02 µM,1.6%
same,inhibition,FGR (human); compound 0.2 µM,14.2%
same,inhibition,PGK1 (human); compound 0.02 µM,-6.2%
same,inhibition,PGK1 (human); compound 0.2 µM,1.9%
same,inhibition,HIPK4 (human); compound 0.02 µM,84%
same,inhibition,HIPK4 (human); compound 0.2 µM,98.4%
same,inhibition,AURKA (human); compound 0.02 µM,-1.5%
same,inhibition,AURKA (human); compound 0.2 µM,5.4%
same,inhibition,AKT3 (human); compound 0.02 µM,-2.6%
same,inhibition,AKT3 (human); compound 0.2 µM,-1.1%
same,inhibition,INSRR (human); compound 0.02 µM,-6.9%
same,inhibition,INSRR (human); compound 0.2 µM,-3%
same,inhibition,AKT2 (human); compound 0.02 µM,-9%
same,inhibition,AKT2 (human); compound 0.2 µM,-8.2%
same,inhibition,GSK3A (human); compound 0.02 µM,-3.9%
same,inhibition,GSK3A (human); compound 0.2 µM,6.8%
same,inhibition,AKT1 (human); compound 0.02 µM,-2.8%
same,inhibition,AKT1 (human); compound 0.2 µM,-1.4%
same,inhibition,EPHB2 (human); compound 0.02 µM,-2.9%
same,inhibition,EPHB2 (human); compound 0.2 µM,14.4%
same,inhibition,PAK4 (human); compound 0.02 µM,-8%
same,inhibition,PAK4 (human); compound 0.2 µM,4.4%
same,inhibition,NIM1 (human); compound 0.02 µM,-3.6%
same,inhibition,NIM1 (human); compound 0.2 µM,6.4%
same,inhibition,ROCK1 (human); compound 0.02 µM,-1.1%
same,inhibition,ROCK1 (human); compound 0.2 µM,6.8%
same,inhibition,CAMK1D (human); compound 0.02 µM,-6.7%
same,inhibition,CAMK1D (human); compound 0.2 µM,3.1%
same,inhibition,MKNK1 (human); compound 0.02 µM,-1.3%
same,inhibition,MKNK1 (human); compound 0.2 µM,6.4%
same,inhibition,TNIK (human); compound 0.02 µM,-6.2%
same,inhibition,TNIK (human); compound 0.2 µM,0.8%
same,inhibition,STK4 (human); compound 0.02 µM,-5.1%
same,inhibition,STK4 (human); compound 0.2 µM,-3.5%
same,inhibition,EPHA7 (human); compound 0.02 µM,2%
same,inhibition,EPHA7 (human); compound 0.2 µM,26.5%
same,inhibition,CAMK2D (human); compound 0.2 µM,5.2%
same,inhibition,PRKCH (human); compound 0.02 µM,2.1%
same,inhibition,GSG2 (human); compound 0.02 µM,-3%
same,inhibition,GSG2 (human); compound 0.2 µM,-1.8%
same,inhibition,JAK1 JH1 JH2 (human); compound 0.02 µM,-1.7%
same,inhibition,JAK1 JH1 JH2 (human); compound 0.2 µM,3.1%
CCN(CC)CCNC(=O)c1c(C)[nH]c(/C=C2\C(=O)Nc3ccc(F)cc32)c1C,inhibition,PAK1 (human); compound 0.2 µM,-2.8%
same,inhibition,PAK1 (human); compound 4.0 µM,1.8%
same,inhibition,NEK6 (human); compound 0.2 µM,-1.5%
same,inhibition,NEK6 (human); compound 4.0 µM,-6.8%
same,inhibition,CDK7 (human); compound 0.2 µM,87.6%
same,inhibition,CDK7 (human); compound 4.0 µM,98.8%
same,inhibition,CDK4 (human); compound 0.2 µM,16.6%
same,inhibition,CDK4 (human); compound 4.0 µM,62.5%
same,inhibition,PBK (human); compound 0.2 µM,-6.1%
same,inhibition,PBK (human); compound 4.0 µM,-7.6%
same,inhibition,TSSK3 (human); compound 0.2 µM,2.6%
same,inhibition,TSSK3 (human); compound 4.0 µM,-1.3%
same,inhibition,FRK (human),29.7%
same,inhibition,EPHA2 (human); compound 0.2 µM,-1.9%
same,inhibition,EPHA2 (human); compound 4.0 µM,24.9%
same,inhibition,LTK (human); compound 0.2 µM,69%
same,inhibition,NEK7 (human); compound 0.2 µM,-1.4%
same,inhibition,NEK7 (human); compound 4.0 µM,-5.6%
same,inhibition,CHUK (human); compound 0.2 µM,3%
same,inhibition,CHUK (human); compound 4.0 µM,2.9%
same,inhibition,FGR (human); compound 0.2 µM,63.4%
same,inhibition,PGK1 (human); compound 0.2 µM,12.5%
same,inhibition,PGK1 (human); compound 4.0 µM,74.1%
same,inhibition,HIPK4 (human); compound 0.2 µM,67.4%
same,inhibition,HIPK4 (human); compound 4.0 µM,96.8%
same,inhibition,AURKA (human); compound 0.2 µM,31.1%
same,inhibition,AURKA (human); compound 4.0 µM,87.3%
same,inhibition,AKT3 (human); compound 0.2 µM,2.3%
same,inhibition,AKT3 (human); compound 4.0 µM,44.8%
same,inhibition,INSRR (human); compound 0.2 µM,75.7%
same,inhibition,INSRR (human); compound 4.0 µM,101%
same,inhibition,GSK3A (human); compound 0.2 µM,3.3%
same,inhibition,GSK3A (human); compound 4.0 µM,21.8%
same,inhibition,AKT1 (human); compound 0.2 µM,-0.8%
same,inhibition,AKT1 (human); compound 4.0 µM,35.7%
same,inhibition,EPHB2 (human); compound 0.2 µM,22.2%
same,inhibition,EPHB2 (human); compound 4.0 µM,79.1%
same,inhibition,PAK4 (human); compound 0.2 µM,16.2%
same,inhibition,PAK4 (human); compound 4.0 µM,62.8%
same,inhibition,NIM1 (human); compound 0.2 µM,17.9%
same,inhibition,NIM1 (human); compound 4.0 µM,67.1%
same,inhibition,ROCK1 (human); compound 0.2 µM,8.9%
same,inhibition,ROCK1 (human); compound 4.0 µM,55.4%
same,inhibition,MKNK1 (human); compound 0.2 µM,7.4%
same,inhibition,MKNK1 (human); compound 4.0 µM,30.3%
same,inhibition,TNIK (human); compound 0.2 µM,87.5%
same,inhibition,TNIK (human); compound 4.0 µM,98.1%
same,inhibition,STK4 (human); compound 0.2 µM,92.8%
same,inhibition,STK4 (human); compound 4.0 µM,103%
same,inhibition,EPHA7 (human); compound 0.2 µM,19.8%
same,inhibition,EPHA7 (human); compound 4.0 µM,82%
same,inhibition,CAMK2D (human); compound 0.2 µM,88.8%
same,inhibition,CAMK2D (human); compound 4.0 µM,100%
same,inhibition,PRKCH (human); compound 0.2 µM,2.3%
same,inhibition,PRKCH (human); compound 4.0 µM,20.7%
same,inhibition,GSG2 (human); compound 0.2 µM,39.2%
same,inhibition,GSG2 (human); compound 4.0 µM,89.7%
same,inhibition,JAK1 JH1 JH2 (human); compound 0.2 µM,10.9%
same,inhibition,JAK1 JH1 JH2 (human); compound 4.0 µM,70.4%

# From the kinase profiling compilation of Christmann-Franck et al. (2016)
